Data: US12503482B2, “Compositions and methods for trehalose phospholipids” (The Brigham and Women's Hospital, Inc., priority 2019, dated 2025)
Where a chain is given by its changes, count along the chain named. Where two headings read alike, the source gives them in different places.

Tests used:
Type in all cases: cell-based
murine Mincle = biological target: T1, murine Mincle (Mus musculus, UniProt Q9R0Q8); assay: Mincle activation assay, murine Mincle-FcRγ GFP reporter cell line with plate-coated lipids
T1 construct: expressed in transfected cells; host or cells: 2B4-NFAT-GFP cells
T1 sequence (Q9R0Q8 1-214): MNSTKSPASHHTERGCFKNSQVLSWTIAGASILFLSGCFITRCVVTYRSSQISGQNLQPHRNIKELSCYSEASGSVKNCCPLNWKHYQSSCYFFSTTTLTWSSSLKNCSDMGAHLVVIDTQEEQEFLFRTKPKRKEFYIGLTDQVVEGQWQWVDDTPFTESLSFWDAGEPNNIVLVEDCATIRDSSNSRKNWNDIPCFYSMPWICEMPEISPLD
T1 sequence (P20491 19-86 partner): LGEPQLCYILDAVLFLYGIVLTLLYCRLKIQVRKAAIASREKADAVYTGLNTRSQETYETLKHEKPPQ

human Mincle = biological target: T2, human Mincle (Homo sapiens, UniProt Q9ULY5); assay: Mincle activation assay, human Mincle-FcRγ GFP reporter cell line with plate-coated lipids; settings: FIG. 3D
T2 construct: expressed in transfected cells; host or cells: 2B4-NFAT-GFP cells
T2 sequence (Q9ULY5 1-219): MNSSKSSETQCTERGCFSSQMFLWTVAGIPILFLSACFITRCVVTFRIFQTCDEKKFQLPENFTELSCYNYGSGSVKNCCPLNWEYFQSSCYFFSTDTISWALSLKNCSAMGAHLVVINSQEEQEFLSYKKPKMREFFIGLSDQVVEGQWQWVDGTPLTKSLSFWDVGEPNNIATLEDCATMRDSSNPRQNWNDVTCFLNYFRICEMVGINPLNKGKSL
T2 sequence (P30273 19-86 partner): T1 sequence (P20491 19-86 partner) with V13I, A38T, R40Y, A43S, A45G, N51S, S54N

FcRγ = assay: Negative control reporter cell line expressing FcRγ only; settings: FIG. 3D

Row | relative sensitivity of murine Mincle to diPT versus TDM (murine Mincle; FIG. 3D) | activation of murine Mincle reporter cell line (murine Mincle; comparison of murine and human reporter lines, FIG. 3D) | amount of coated lipid at which reporter cells respond (GFP expression) (murine Mincle; murine Mincle-FcRγ reporter cell line, plate-coated lipid, FIG. 3C) | activation of human Mincle reporter cell line (human Mincle; comparison of murine and human reporter lines) | Compound | relative sensitivity of human Mincle to diPT versus TDM (human Mincle) | activation of negative control cell line expressing FcRγ only (FcRγ) | amount of coated lipid at which reporter cells respond (GFP expression) (murine Mincle)
1 | the opposite is true | activation present at nanogram levels | 20 ng | activation present at nanogram levels | CCCCCCCCCCCCCCCC(=O)OC[C@H](COP(=O)(O)OCC1OC(OC2OC(COP(=O)(O)OC[C@@H](COC(=O)CCCCCCCCCCCCCCC)OC(=O)CCCCCCC[C@H]3C[C@H]3CCCCCC)C(O)C(O)C2O)C(O)C(O)C1O)OC(=O)CCCCCCC[C@H]1C[C@H]1CCCCCC (some centres unmarked) [synthetic diPT, 6,6′-diphosphatidyltrehalose] | marginally more sensitive to diPT than to TDM | failed to activate | –
2 | – | – | – | – | trehalose dimycolate [TDM, reference compound] | – | – | 5 ng
3 | – | – | – | – | 6,6′-diphosphatidyltrehalose [natural diPT] | – | – | 5 ng
